Source: US8815295B1, “Anti respiratory syncytial virus peptide functionalized gold nanoparticles” (Alabama State University, priority 2011, dated 2014)
Peptide text beside a SMILES is read from it.

System: human epidermoid cancer (HEp-2) cells
Assay: MTT cell viability (cytotoxicity) assay
Details: 24 and 48 hours, concentrations up to 50 μg/ml
Method: The peptides and carboxylated gold nanoparticles were tested for cytotoxic effects on human epidermoid cancer (HEp-2) cells. Cell viability was assessed by measuring cell concentration of a tetrazolium salt (3-(4,5 dimethyl-2-yl)-5-(3-carboxy-methoxyphenyl)-2-(4-sulfophenyl)-2H-tetrazolium) […]. If cells are viable the mitochondria will reduce the MTT. The cells were grown overnight in minimal essential medium (MEM) supplemented with L-glutamine, Penicillin, streptomycin, and kanamycin. 2.7×10^5 cells/well in 100 μl were seeded into 96-well plates in MEM. Cells were allowed to grow overnight in an incubator at 37° C., with a 5% CO2 humidified atmosphere, until the carboxylated gold nanoparticles were added. […] Treated cells were further incubated at 37° C., 5% CO2 for 24, and 48 hours. At the end of the corresponding incubation time, 15 μl of MTT dye was added into each well and the plates were allowed to incubate for the next 4 hours in the dark. The reaction was then stopped with 100 μl of stop solution. The absorbance of the media was measured at 570 nm on a TECAN Sunrise enzyme-linked immunosorbent assay plate reader (TECAN, US Inc., Durham, N.C., USA). Non-treated cells in growth media were used as a control.

Compound	effect on cell viability
CC[C@H](C)[C@H](NC(=O)[C@H](Cc1ccccc1)NC(=O)[C@H](C)NC(=O)[C@H](CC(C)C)NC(=O)[C@H](CO)NC(=O)[C@H](CCC(N)=O)NC(=O)[C@H](CC(N)=O)NC(=O)[C@@H](NC(=O)[C@H](CCCCN)NC(=O)[C@H](CCC(=O)O)NC(=O)[C@H](CC(N)=O)NC(=O)[C@@H](NC(=O)[C@H](CCC(N)=O)NC(=O)[C@H](CO)NC(=O)[C@@H](NC(=O)[C@@H](N)CO)[C@@H](C)CC)C(C)C)[C@@H](C)CC)C(=O)N[C@@H](CCCNC(=N)N)C(=O)N[C@@H](CCCCN)C(=O)N[C@@H](CO)C(=O)N[C@@H](CC(=O)O)C(=O)O [RF491] (H-SISQVNEKINQSLAFIRKSD-OH)	no significant effect
VFPSDEFDASISQVNEKINQSLAFIRKSDLLHNVNAGKK (respiratory syncytial virus) [RF482]	no significant effect
